The values that follow are results of earlier work, collected in US12458027B2, “Glyphosate composition for dicamba tank mixtures with improved volatility” (Monsanto Technology LLC, priority 2013, dated 2025).

For this data set the following is noted: 25° C.

Molecules are shown by their SMILES.

As to `O=C(O)CNCP(=O)(O)O` [Glyphosate acid, N-(phosphonomethyl)glycine], the solubility in water result was “about 1.16 wt. %”.
